Consider 1 substance from patent US20260167706A1, “ANTI-ADRENOMEDULLIN (ADM) ANTIBODY OR ANTI-ADM ANTIBODY FRAGMENT OR ANTI-ADM NON-IG SCAFFOLD FOR USE IN THERAPY OR PREVENTION OF SHOCK” (ADRENOMED AG, priority 2022, published 2026).

One series relates to endotoxemic rats. The conditions noted are these: pre-treatment; cited from earlier work.
Series [1] concerns patients with septic shock and elevated adrenomedullin. Briefly: AdrenOSS-2 phase II clinical trial, mortality versus placebo. It counts as in vivo, human.
For series [2] the test system is unchanged. The series is described as above. It counts as in vivo, human. The conditions noted are these: for all-cause mortality compared to the placebo arm: 28 days. From the text: AdrenOSS-2 is a double-blind, placebo-controlled, randomized, multicenter, proof of concept and dose-finding phase II clinical trial to investigate the safety, tolerability and efficacy of the N-terminal ADM antibody named Adrecizumab in patients with septic shock and elevated adrenomedullin (Geven et al. BMJ Open 2019; 9:e024475). In total, 301 patients with septic shock and bio-ADM concentration >70 pg/mL were randomized (2:1:1) to treatment with a single intravenous infusion over approximately 1 hour with either placebo (n=152), adrecizumab 2 ng/kg (n=72) or adrecizumab 4 ng/kg (n=77). All-cause mortality within 28 (90) days after inclusion was 25.8% (34.8%). Mean age was 68.4 years and 61% were male. For the per protocol analysis, n=294 patients remained eligible, and 14-day all-cause mortality rate was 18.5%.
To validate the findings from example 10 and for proof of concept, the different lower thresholds for DPP3 at baseline (day 1) were assessed for efficacy of the anti-ADM antibody (Adrecizumab) therapy in the septic shock population with high bio-ADM from the AdrenOSS-2 study cohort and patients with a DPP3 plasma value above the different lower thresholds were excluded from the analyses. Efficacy of the anti-bio-ADM antibody therapy was specifically assessed to what concerns the mortality endpoint in the placebo and treated arms.
The DPP3 plasma levels in septic shock with high bio-ADM (above […]) patients (n=298) at baseline and in the following 144 h were statistically analysed with the aim of determining a DPP3 threshold at baseline to assess anti-ADM antibody therapy efficacy. Patients above the respective DPP3 plasma thresholds were excluded from the analyses. Different DPP3 plasma concentration thresholds have been applied for 28-day all-cause mortality evaluation using Kaplan-Meier plots comparing anti-ADM antibody therapy vs. placebo. The log-rank test was chosen for showing differences in mortality rates among treatment groups. Hazard ratios (HR) were calculated for each DPP3 plasma concentration threshold to estimate the reduction in mortality risk imposed by anti-ADM antibody therapy relative to placebo.
The different thresholds for DPP3 levels at baseline (day 1) were further used for subgroup analyses for 28-day all-cause mortality evaluation using Kaplan-Meier plots in the treated and placebo arms comparing anti-ADM antibody therapy (Adrecizumab) vs. placebo. The DPP3 plasma concentration thresholds at baseline used were 50 ng/ml and 30 ng/ml.

Series [3] relates to mice with CLP-induced sepsis. The conditions noted are these: pre-treatment, cited from earlier work.
The test system of series [4] is subjects of phase I study. The conditions noted are these: cited from earlier work.

Like-named read-outs stand apart in the source and are kept apart here.

With “Adrecizumab: humanized N-terminal anti-ADM antibody; heavy chain SEQ ID NO: 32, light chain SEQ ID NO: 33”, the renal vascular leakage entry (in the series with endotoxemic rats; in series [3] (mice with CLP-induced sepsis)) was “attenuated” each time. The “HR for 14-day mortality” value worked out at 1.69 in series [1] (elevated DPP3 above 50 ng/mL); 0.385 in series [1] (pre-dose DPP3 <40); 0.426 in series [1] (pre-dose DPP3 <50 (ng/mL)); 0.449 in series [1] (pre-dose DPP3 <60); 0.546 in series [1] (pre-dose DPP3 <70); 0.606 in series [1] (pre-dose DPP3 <90). The “all-cause mortality compared to the placebo arm” value in series [2] (DPP3 below 30 ng/ml (n=195)) is reported as “significantly reduced”; in series [2] (DPP3 below 50 ng/ml), “lower than the placebo arm”; in series [2] (DPP3 below 50 ng/ml at baseline and continuously low during the next 144h), “significantly lower”. For the same substance, the “HR, 28-day all-cause mortality relative to placebo” value in series [2] (DPP3 threshold at baseline 22 ng/ml) stood at 0.258; in series [2] (DPP3 threshold at baseline 30 ng/ml), 0.309; in series [2] (DPP3 threshold at baseline 40 ng/ml) it was 0.568; in series [2] (DPP3 threshold at baseline 50 ng/ml) it was 0.606. Besides, the 7-day survival in series [3] (repeated dose administration (control 0%)) is reported as 40%; in series [3] (single dose administration (control 10%)), 50%. Also, the serious adverse events result in series [4] is “no serious adverse events were observed”.
